Counter-ions that a name gives are not always drawn.
Key:
Bcl-2 protein = biological target: T1, Bcl-2 protein (histag-Bcl-2, UniProtKB P10415) (Homo sapiens, UniProt P10415); assay: Inhibition of Bcl-2 by the fluorescence polarisation technique; format: binding; settings: fluorescence polarisation, 2 hours incubation; read-out: IC50 (nM) Bcl-2 FP
T1 construct: His tag
Method: The fluorescence polarisation tests were carried out on microplates (384 wells). The Bcl-2 protein, labelled (histag-Bcl-2 such that Bcl-2 corresponds to the UniProtKB® primary accession number: P10415), at a final concentration of 2.50×10^−8 M, is mixed with a fluorescent peptide (Fluorescein-[…]), at a final concentration of 1.00×10^−8M in a buffer solution (Hepes 10 mM, NaCl 150 mM, Tween20 0.05%, pH 7.4), in the presence or absence of increasing concentrations of test compounds. After incubation for 2 hours, the fluorescence polarisation is measured.

[1] = system: RS4;11 leukaemia tumour line; assay: In vitro cytotoxicity (MTT) on RS4;11; format: cell-based; settings: Homo sapiens; RS4;11 cells, 48 hours exposure
Method: The cytotoxicity studies were carried out on the RS4;11 leukaemia tumour line.
The cells are distributed onto microplates and exposed to the test compounds for 48 hours.
The cell viability is then quantified by a colorimetric assay, the Microculture Tetrazolium Assay (Cancer Res., 1987, 47, 939-942).

T1 sequence (P10415 whole entry): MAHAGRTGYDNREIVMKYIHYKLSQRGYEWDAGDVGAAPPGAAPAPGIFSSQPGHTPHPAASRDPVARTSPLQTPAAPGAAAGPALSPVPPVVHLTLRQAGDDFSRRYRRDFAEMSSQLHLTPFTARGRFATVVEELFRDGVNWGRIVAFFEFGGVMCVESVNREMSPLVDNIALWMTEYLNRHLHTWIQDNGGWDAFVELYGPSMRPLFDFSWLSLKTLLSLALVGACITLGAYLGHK

IC50 (Bcl-2 protein) [nM]	Structure (SMILES)	IC50 [1] [nM]
17	C[C@@H]1Cc2ccccc2CN1C(=O)c1cc2c(cc1-c1cc(C(=O)N(c3ccc(O)cc3)c3ccc4c(ccn4CCN4CCOCC4)c3)c3n1CCCC3)OCO2 [Example 2, N-(4-Hydroxyphenyl)-3-(6-{[(3R)-3-methyl-3,4-dihydroisoquinolin-2(1H)-yl]carbonyl}-1,3-benzodioxol-5-yl)-N-{1-[2-(morpholin-4-yl)ethyl]-1H-indol-5-yl}-5,6,7,8-tetrahydroindolizine-1-carboxamide hydrochloride]	36
5.3	C[C@@H]1Cc2ccccc2CN1C(=O)c1ccc(F)cc1-c1cc(C(=O)N(c2ccc(O)cc2)c2cnc3c(ccn3C)c2)c2n1CCCC2 [Example 65, 3-(5-Fluoro-2-{[(3R)-3-methyl-3,4-dihydroisoquinolin-2(1H)-yl]-carbonyl}phenyl)-N-(4-hydroxyphenyl)-N-(1-methyl-1H-pyrrolo[2,3-b]pyridin-5-yl)-5,6,7,8-tetrahydroindolizine-1-carboxamide]	62.8
6	C[C@@H]1Cc2ccccc2CN1C(=O)c1cc2c(cc1-c1cc(C(=O)N(c3ccccc3)c3ccc(O)cc3)c3n1CCCC3)OCO2 [Example 40, N-(4-Hydroxyphenyl)-3-(6-{[(3R)-3-methyl-3,4-dihydroisoquinolin-2(1H)-yl]carbonyl}-1,3-benzodioxol-5-yl)-N-phenyl-5,6,7,8-tetrahydroindolizine-1-carboxamide]	49
6.2	O=C(c1cc(-c2cc3c(cc2C(=O)N2Cc4ccccc4C[C@H]2CCN2CCOCC2)OCO3)n2c1CCCC2)N(c1ccc(O)cc1)c1cccc(F)c1 [Example 24, N-(3-Fluorophenyl)-N-(4-hydroxyphenyl)-3-(6-{[(3S)-3-[2-(morpholin-4-yl)ethyl]-3,4-dihydroisoquinolin-2(1H)-yl]carbonyl}-1,3-benzodioxol-5-yl)-5,6,7,8-tetrahydroindolizine-1-carboxamide hydrochloride]	28.4
40.6	C[C@@H]1Cc2ccccc2CN1C(=O)c1ccc(F)cc1-c1cc(C(=O)N(c2ccc(O)cc2)c2ccc(F)cc2)c2n1CCNC2 [Example 9, 6-(5-Fluoro-2-{[(3R)-3-methyl-3,4-dihydroisoquinolin-2(1H)-yl]carbonyl}-phenyl)-N-(4-fluorophenyl)-N-(4-hydroxyphenyl)-1,2,3,4-tetrahydropyrrolo[1,2-a]-pyrazine-8-carboxamide hydrochloride]	780
33.6	C[C@@H]1Cc2ccccc2CN1C(=O)c1ccc(Cl)cc1-c1cc(C(=O)N(c2ccc(O)cc2)c2ccc3c(ccn3C)c2)c2n1CCNC2 [Example 3, 6-(5-Chloro-2-{[(3R)-3-methyl-3,4-dihydroisoquinolin-2(1H)-yl]-carbonyl}phenyl)-N-(4-hydroxyphenyl)-N-(1-methyl-1H-indol-5-yl)-1,2,34-tetrahydropyrrolo[1,2-a]pyrazine-8-carboxamide hydrochloride]	66.5
7	C[C@@H]1Cc2ccccc2CN1C(=O)c1ccc(F)cc1-c1cc(C(=O)N(c2ccc(O)cc2)c2cnn(C)c2)c2n1CCCC2 [Example 61, 3-(5-Fluoro-2-{[(3R)-3-methyl-3,4-dihydroisoquinolin-2(1H)-yl]-carbonyl}phenyl)-N-(4-hydroxyphenyl)-N-(1-methyl-1H-pyrazol-4-yl)-5,6,7,8-tetrahydroindolizine-1-carboxamide]	61.3
4.3	C[C@@H]1Cc2ccccc2CN1C(=O)c1ccc(Cl)cc1-c1cc(C(=O)N(c2ccc(O)cc2)c2cnn(C)c2)c2n1CCCC2 [Example 47, 3-(5-Chloro-2-{[(3R)-3-methyl-3,4-dihydroisoquinolin-2(1H)-yl]-carbonyl}phenyl)-N-(4-hydroxyphenyl)-N-(1-methyl-1H-pyrazol-4-yl)-5,6,7,8-tetrahydroindolizine-1-carboxamide]	90.1

The next lines start with the molecule.

Structure (SMILES)	IC50 (Bcl-2 protein) [nM]	IC50 [1] [nM]
N#Cc1cccc(N(C(=O)c2cc(-c3cc4c(cc3C(=O)N3Cc5ccccc5C[C@H]3CCN3CCOCC3)OCO4)n3c2CCCC3)c2ccc(O)cc2)c1 [Example 23, N-(3-Cyanophenyl)-N-(4-hydroxyphenyl)-3-(6-{[(3S)-3-[2-(morpholin-4-yl)ethyl]-3,4-dihydroisoquinolin-2(1H)-yl]carbonyl}-1,3-benzodioxol-5-yl)-5,6,7,8-tetrahydroindolizine-1-carboxamide hydrochloride]	3.8	9.99
CCCCN(CCCC)C(=O)c1cc(-c2cc3c(cc2C(=O)N2Cc4ccccc4C[C@H]2C)OCO3)n2c1CNCC2 [Example 78, N,N-Dibutyl-6-(6-{[(3R)-3-methyl-3,4-dihydroisoquinolin-2(1H)-yl]-carbonyl}-1,3-benzodioxol-5-yl)-1,2,3,4-tetrahydropyrrolo[1,2-a]pyrazine-8-carboxamide]	823	1880
C[C@@H]1Cc2ccccc2CN1C(=O)c1cc2c(cc1-c1cc(C(=O)N(c3ccc(O)cc3)c3cccnc3)c3ccccn13)OCO2 [Example 34, N-(4-Hydroxyphenyl)-3-(6-{[(3R)-3-methyl-3,4-dihydroisoquinolin-2(1H)-yl]carbonyl}-1,3-benzodioxol-5-yl)-N-(pyridin-3-yl)indolizine-1-carboxamide hydrochloride]	5.6	27.3
O=C(c1cc2c(cc1-c1cc(C(=O)N(c3ccc(O)cc3)c3ccc(OCCN4CCOCC4)c(F)c3)c3ccccn13)OCO2)N1CCc2ccccc2C1 [Example 18, 3-[6-(3,4-Dihydroisoquinolin-2(1H)-ylcarbonyl)-1,3-benzodioxol-5-yl]-N-{3-fluoro-4-[2-(morpholin-4-yl)ethoxy]phenyl}-N-(4-hydroxyphenyl)indolizine-1-carboxamide hydrochloride]	7.5	47.7
C[C@@H]1Cc2ccccc2CN1C(=O)c1cc2c(cc1-c1cc(C(=O)N(c3ccc(O)cc3)c3ccc(CCN4CCC(F)(F)C4)cc3)c3ccccn13)OCO2 [Example 36, N-{4-[2-(3,3-Difluoropyrrolidin-1-yl)ethyl]phenyl}-N-(4-hydroxyphenyl)-3-(6-{[(3R)-3-methyl-3,4-dihydroisoquinolin-2(1,H)-yl]carbonyl}-1,3-benzodioxol-5-yl)indolizine-1-carboxamide hydrochloride]	12.6	49.7
C[C@@H]1Cc2ccccc2CN1C(=O)c1cc2c(cc1-c1cc(C(=O)N(c3ccncc3)c3ccc(O)cc3)c3ccccn13)OCO2 [Example 21, N-(4-Hydroxyphenyl)-3-(6-{[(3R)-3-methyl-3,4-dihydroisoquinolin-2(1H)-yl]carbonyl}-1,3-benzodioxol-5-yl)-N-(pyridin-4-yl)indolizine-1-carboxamide hydrochloride]	4.6	25.3
C[C@@H]1Cc2ccccc2CN1C(=O)c1cc2c(cc1-c1cc(C(=O)N(c3ccc(O)cc3)c3cnn(CCN4CCOCC4)c3)c3ccccn13)OCO2 [Example 45, N-(4-Hydroxyphenyl)-3-(6-{[(3R)-3-methyl-3,4-dihydroisoquinolin-2(1,H)-yl]carbonyl}-1,3-benzodioxol-5-yl)-N-{1-[2-(morpholin-4-yl)ethyl]-1H-pyrazol-4-yl}indolizine-1-carboxamide hydrochloride]	3.8	63.8
